# Test results reported in publication doi:10.1101/2025.04.19.649632v1 (biorxiv, 2025).
# Like-named read-outs stand apart in the source and are kept apart here.
# Experiments:
# [1] = biological target: T1, USP32 FL (USP32FL, USP32WT) (Homo sapiens, UniProt Q8NFA0); experiment: UbRhoMP fluorescence intensity assay, […] min preincubation; format: biochemical
# [2] = biological target: T1, USP32 FL (USP32FL, USP32WT); experiment: biochemical; conditions: read-out: kinact (s^-1)
# [3] = biological target: T1, USP32 FL (USP32FL, USP32WT); format: biochemical; conditions: 500 nM UbRhoMP, pH 7.6, 1 mM TCEP, RT; covalent
# [4] = biological target: T1, USP32 FL (USP32FL, USP32WT); conditions: read-out: Ki; covalent
# T1 sequence (Q8NFA0 whole entry): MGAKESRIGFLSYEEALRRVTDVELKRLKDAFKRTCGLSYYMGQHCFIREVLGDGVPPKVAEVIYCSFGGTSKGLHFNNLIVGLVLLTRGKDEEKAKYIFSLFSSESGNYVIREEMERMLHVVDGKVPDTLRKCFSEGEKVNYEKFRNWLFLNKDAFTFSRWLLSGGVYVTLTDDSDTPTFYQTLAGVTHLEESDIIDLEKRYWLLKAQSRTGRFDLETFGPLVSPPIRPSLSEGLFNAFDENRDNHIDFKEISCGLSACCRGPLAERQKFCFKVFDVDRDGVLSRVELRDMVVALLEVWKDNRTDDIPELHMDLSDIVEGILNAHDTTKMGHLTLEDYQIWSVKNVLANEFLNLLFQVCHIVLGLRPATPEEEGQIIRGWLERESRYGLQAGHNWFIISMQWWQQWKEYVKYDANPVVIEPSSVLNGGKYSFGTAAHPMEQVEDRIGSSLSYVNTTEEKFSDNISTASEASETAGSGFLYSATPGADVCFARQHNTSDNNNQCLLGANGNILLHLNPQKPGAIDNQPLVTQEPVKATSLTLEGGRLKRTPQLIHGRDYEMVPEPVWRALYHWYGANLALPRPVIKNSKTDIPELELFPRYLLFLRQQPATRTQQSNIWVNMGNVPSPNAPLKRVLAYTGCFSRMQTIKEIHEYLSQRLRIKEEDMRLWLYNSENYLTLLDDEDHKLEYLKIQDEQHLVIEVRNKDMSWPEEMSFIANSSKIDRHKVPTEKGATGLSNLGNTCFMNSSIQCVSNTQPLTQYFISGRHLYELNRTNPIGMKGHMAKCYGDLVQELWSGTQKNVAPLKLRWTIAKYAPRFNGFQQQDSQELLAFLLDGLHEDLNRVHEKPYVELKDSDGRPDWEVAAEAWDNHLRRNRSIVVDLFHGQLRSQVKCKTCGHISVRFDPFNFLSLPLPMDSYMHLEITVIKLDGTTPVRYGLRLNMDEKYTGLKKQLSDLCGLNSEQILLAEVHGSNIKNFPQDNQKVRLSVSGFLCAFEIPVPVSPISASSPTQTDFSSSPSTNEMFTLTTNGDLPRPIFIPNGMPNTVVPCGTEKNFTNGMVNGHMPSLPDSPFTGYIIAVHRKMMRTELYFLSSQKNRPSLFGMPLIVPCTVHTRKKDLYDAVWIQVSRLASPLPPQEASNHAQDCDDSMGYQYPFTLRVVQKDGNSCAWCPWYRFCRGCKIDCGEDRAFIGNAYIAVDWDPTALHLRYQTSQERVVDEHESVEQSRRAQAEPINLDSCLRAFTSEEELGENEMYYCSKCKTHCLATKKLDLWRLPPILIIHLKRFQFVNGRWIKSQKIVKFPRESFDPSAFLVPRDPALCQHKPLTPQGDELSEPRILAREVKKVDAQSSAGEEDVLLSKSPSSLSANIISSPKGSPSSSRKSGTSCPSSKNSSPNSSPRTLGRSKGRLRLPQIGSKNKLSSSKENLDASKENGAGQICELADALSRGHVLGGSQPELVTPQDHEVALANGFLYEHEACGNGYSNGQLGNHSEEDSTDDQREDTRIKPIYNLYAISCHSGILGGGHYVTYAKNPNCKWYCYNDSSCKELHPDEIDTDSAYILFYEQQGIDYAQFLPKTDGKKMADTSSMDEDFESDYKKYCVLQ
Structure (SMILES),IC50 [1],"IC50 ([1]; 500 nM UbRhoMP, pH 7.6, 1 mM TCEP, RT, covalent)",kinact [2],kinact/Ki [3],KI (inactivation) [4]
N#CN1CC[C@@H](NC(=O)C2CCN(S(=O)(=O)c3ccc(OCCn4cc(CNC(=O)CCCC[C@@H]5SC[C@@H]6NC(=O)N[C@@H]65)nn4)cc3)CC2)C1 [Huib32*2],0.266 µM,,,,
N#CN1CC[C@@H](NC(=O)C2CCN(S(=O)(=O)c3ccc(OCCN=[N+]=[N-])cc3)CC2)C1 [Huib32*],0.67 µM,,,,
CCN1/C(=C/C=C/C=C/C2=[N+](CCCCCC(=O)NCCCc3cn(CCOc4ccc(S(=O)(=O)N5CCC(C(=O)N[C@@H]6CCN(C#N)C6)CC5)cc4)nn3)c3ccc(S(=O)(=O)[O-])cc3C2(C)C)C(C)(C)c2cc(S(=O)(=O)O)ccc21 [Huib32*1],,0.412 µM,,,
Cc1noc(C)c1S(=O)(=O)N1CCC(C(=O)N2CC3CC2CN3C#N)CC1 (centres unmarked) [BB12CA282],0.094 µM,,0.000324 s⁻¹,"2,130 s^-1M^-1",0.152 µM
"Cc1noc(C)c1S(=O)(=O)N1CCC(C(=O)N[C@@H]2CCN(C#N)C2)CC1 [BB01CA282, Huib32]",,,0.000222 s⁻¹,"18,800 s^-1M^-1",0.0118 µM
Cc1noc(C)c1S(=O)(=O)N1CCC(C(=O)N2CCC3(CCN(C#N)C3)C2)CC1 (centres unmarked) [BB14CA282],0.518 µM,,0.000984 s⁻¹,219 s^-1M^-1,4.49 µM
